In this assay the target is T1, BRAF V600E (Homo sapiens, UniProt P15056, V600E).
T1 construct: endogenous C-terminal HiBiT fusion tag on BRAF V600E allele; endogenous in cells; host or cells: A375 clone 1F10 (CRISPR-Cas9 knock-in of the HiBiT tag; parental A375 from ATCC)
The experiment in a line: BRAF HiBiT degradation assay, C-terminal HiBiT-tagged BRAF V600E A375 cells (clone 1F10), Nano-Glo HiBiT Lytic assay. The format is cell-based. The following applies: for Dmax: A-375. In short, it runs like this: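 A375 cells (clone 1F10, endogenous C-terminal HiBiT on BRAF V600E) were seeded at 10,000 cells/well, grown 24 h, then dosed in duplicate with an 11-point series from 1 μM to 0.01 nM (0.2% DMSO). Nano-Glo HiBiT lytic luminescence was normalised to DMSO and wildtype-A375 background; DC50 was read at 50% protein remaining, alongside observed Dmax.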

[1] abbreviates: A375 (BRAF V600E), DC50 at 50%: fitted conc. at Y=50.
The mark [2] stands for this setting: A375 (BRAF V600E), percentage protein degraded at maximal compound effect relative to DMSO.

The results in this text go back to patent US20260317324A1, “BIFUNCTIONAL COMPOUNDS FOR DEGRADING BRAF VIA UBIQUITIN PROTEOSOME PATHWAY” (Nurix Therapeutics, Inc., priority 2023, published 2026).

T1 sequence (P15056 whole entry V600E, the tested form may be a part): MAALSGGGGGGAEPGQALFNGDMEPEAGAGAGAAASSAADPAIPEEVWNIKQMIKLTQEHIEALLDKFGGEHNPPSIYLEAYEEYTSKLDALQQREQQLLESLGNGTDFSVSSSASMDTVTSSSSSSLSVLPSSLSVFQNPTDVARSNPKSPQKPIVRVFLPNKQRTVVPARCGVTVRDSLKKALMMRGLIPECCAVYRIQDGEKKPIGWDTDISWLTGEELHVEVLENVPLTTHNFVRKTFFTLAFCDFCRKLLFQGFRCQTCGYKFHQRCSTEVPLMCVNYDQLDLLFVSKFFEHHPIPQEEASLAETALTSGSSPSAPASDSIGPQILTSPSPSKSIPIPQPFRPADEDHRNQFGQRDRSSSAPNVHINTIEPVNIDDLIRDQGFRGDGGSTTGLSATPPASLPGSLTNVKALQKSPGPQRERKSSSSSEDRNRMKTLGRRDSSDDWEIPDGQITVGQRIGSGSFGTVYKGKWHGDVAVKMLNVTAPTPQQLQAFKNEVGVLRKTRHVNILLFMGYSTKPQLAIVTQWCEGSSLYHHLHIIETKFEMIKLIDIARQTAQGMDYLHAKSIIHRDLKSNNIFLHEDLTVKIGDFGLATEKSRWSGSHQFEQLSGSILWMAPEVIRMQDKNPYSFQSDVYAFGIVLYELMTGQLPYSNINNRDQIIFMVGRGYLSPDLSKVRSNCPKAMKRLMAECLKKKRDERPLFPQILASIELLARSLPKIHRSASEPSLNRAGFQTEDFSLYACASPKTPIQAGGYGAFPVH

Under setting [1], `CCCS(=O)(=O)Nc1cccc(-c2nc(C(C)(C)C)sc2-c2ccnc(N[C@H]3CC[C@H](N4CCN(CC5CCN(c6ccc(C7CCC(=O)NC7=O)cn6)CC5)CC4)CC3)n2)c1F` (mixture of isomers) [Compound 135, N-{3-[2-tert-butyl-5-(2-{[(1r,4r)-4-{4-[(1-{5-[(3RS)-2,6-dioxopiperidin-3-yl]pyridin-2-yl}piperidin-4-yl)methyl]piperazin-1-yl}cyclohexyl]amino}pyrimidin-4-yl)-1,3-thiazol-4-yl]-2-fluorophenyl}propane-1-sulfonamide] had a DC50 of 50 to 500 nM. The Dmax under setting [2] fell in the range of 30 to 70%.

Molecule `CCCS(=O)(=O)Nc1cccc(-c2nc(C3CCN(C(=O)C4CN(C5CCN(c6ccc7c(c6)C(=O)N(C6CCC(=O)NC6=O)C7=O)CC5)C4)CC3)sc2-c2ccnc(N)n2)c1F` (racemic) [Compound 242, Rac-N-{3-[5-(2-aminopyrimidin-4-yl)-2-{1-[1-(1-{2-[(3R)-2,6-dioxopiperidin-3-yl]-1,3-dioxo-2,3-dihydro-1H-isoindol-5-yl}piperidin-4-yl)azetidine-3-carbonyl]piperidin-4-yl}-1,3-thiazol-4-yl]-2-fluorophenyl}propane-1-sulfonamide] displayed a DC50 under setting [1] of less than 10 nM. For the same molecule, the Dmax under setting [2] was greater than 70%.

The molecule `CCCS(=O)(=O)Nc1cccc(-c2nc(C(C)(C)C)sc2-c2ccnc(Nc3ccc(C4CCN(C(=O)CCCCCc5ccc6c(c5)C(=O)N(C5CCC(=O)NC5=O)C6)CC4)cc3)n2)c1F` (racemic) [Compound 151, Rac-N-(3-{2-tert-butyl-5-[2-({4-[1-(6-{2-[(3R)-2,6-dioxopiperidin-3-yl]-3-oxo-2,3-dihydro-1H-isoindol-5-yl}hexanoyl)piperidin-4-yl]phenyl}amino)pyrimidin-4-yl]-1,3-thiazol-4-yl}-2-fluorophenyl)propane-1-sulfonamide] returned a DC50 under setting [1] of 10 to 50 nM. Moreover, the Dmax under setting [2] lay in the range of 30 to 70%.

On to `CCCS(=O)(=O)Nc1cccc(-c2nc(C3CCN(CC4CCN(C(=O)CC5CCN(c6ccc(C7CCC(=O)NC7=O)cn6)CC5)CC4)CC3)sc2-c2ccnc(N)n2)c1F` (racemic) [Compound 202, Rac-N-{3-[5-(2-aminopyrimidin-4-yl)-2-[1-({1-[2-(1-{5-[(3R)-2,6-dioxopiperidin-3-yl]pyridin-2-yl}piperidin-4-yl)acetyl]piperidin-4-yl}methyl)piperidin-4-yl]-1,3-thiazol-4-yl]-2-fluorophenyl}propane-1-sulfonamide], for which the DC50 under setting [1] was less than 10 nM. The same molecule gave a Dmax under setting [2] greater than 70%.

`CCCS(=O)(=O)Nc1cccc(-c2nc(C(C)(C)C)sc2-c2ccnc(Nc3ccc(C4CCN(C(=O)C5CCN(c6ccc7c(c6)C(=O)N(C6CCC(=O)NC6=O)C7=O)CC5)CC4)cc3)n2)c1F` (racemic) [Compound 155, Rac-N-(3-{2-tert-butyl-5-[2-({4-[1-(1-{2-[(3R)-2,6-dioxopiperidin-3-yl]-1,3-dioxo-2,3-dihydro-1H-isoindol-5-yl}piperidine-4-carbonyl)piperidin-4-yl]phenyl}amino)pyrimidin-4-yl]-1,3-thiazol-4-yl}-2-fluorophenyl)propane-1-sulfonamide] registered a half-maximal degradation concentration (DC50) under setting [1] of 50 to 500 nM. This molecule also showed a Dmax under setting [2] of 30 to 70%.

Molecule `CCCS(=O)(=O)Nc1cccc(-c2nc(C(C)(C)C)sc2-c2ccnc(Nc3cccc(OC4CCN(C(=O)C[C@H]5CCN(c6ccc(C7CCC(=O)NC7=O)cc6)C5)CC4)c3)n2)c1F` (mixture of isomers) [Compound 91, N-(3-{2-tert-butyl-5-[2-({3-[(1-{2-[(3R)-1-{4-[(3RS)-2,6-dioxopiperidin-3-yl]phenyl}pyrrolidin-3-yl]acetyl}piperidin-4-yl)oxy]phenyl}amino)pyrimidin-4-yl]-1,3-thiazol-4-yl}-2-fluorophenyl)propane-1-sulfonamide] came in with a DC50 under setting [1] of 50 to 500 nM. Under setting [2], this molecule registered a Dmax of 30 to 70%.

Under setting [1], `CCCS(=O)(=O)Nc1cccc(-c2nc(C(C)(C)C)sc2-c2ccnc(NC3CC4(C3)CN(C(=O)CN3CCN(CCCc5cccc6c5C(=O)N(C5CCC(=O)NC5=O)C6=O)CC3)C4)n2)c1F` (racemic) [Compound 148, Rac-N-[3-(2-tert-butyl-5-{2-[(2-{2-[4-(3-{2-[(3R)-2,6-dioxopiperidin-3-yl]-1,3-dioxo-2,3-dihydro-1H-isoindol-4-yl}propyl)piperazin-1-yl]acetyl}-2-azaspiro[3.3]heptan-6-yl)amino]pyrimidin-4-yl}-1,3-thiazol-4-yl)-2-fluorophenyl]propane-1-sulfonamide] registered a DC50 greater than 500 nM. In addition, under setting [2], the Dmax fell in the range of 30 to 70%.

Consider `CCN(C)S(=O)(=O)Nc1cccc(-c2nc(C)sc2-c2ccnc(Nc3ccc(N4CCN(C(=O)CC5CCN(c6ccc(C7CCC(=O)NC7=O)cn6)CC5)CC4)cn3)n2)c1F` (racemic) [Compound 39, Rac-(3R)-3-{6-[4-(2-{4-[6-({4-[4-(3-{[ethyl(methyl)sulfamoyl]amino}-2-fluorophenyl)-2-methyl-1,3-thiazol-5-yl]pyrimidin-2-yl}amino)pyridin-3-yl]piperazin-1-yl}-2-oxoethyl)piperidin-1-yl]pyridin-3-yl}piperidine-2,6-dione], for which, under setting [1], the DC50 was less than 10 nM. This molecule registered a Dmax under setting [2] greater than 70%.

For the setting “A375 (BRAF V600E, Class 1), DC50 at 50% degradation”, `O=C1CC[C@H](c2ccc(N3CCC(CN4CCN(c5ccc(-n6cc(-c7cc(F)cc(NS(=O)(=O)N8CCCC8)c7F)c(-c7ccncc7)n6)c(F)c5)CC4)CC3)cc2)C(=O)N1` [Compound 340, N-{3-[1-(4-{4-[(1-{4-[(3R)-2,6-dioxopiperidin-3-yl]phenyl}piperidin-4-yl)methyl]piperazin-1-yl}-2-fluorophenyl)-3-(pyridin-4-yl)-1H-pyrazol-4-yl]-2,5-difluorophenyl}pyrrolidine-1-sulfonamide] showed a DC50 of less than 10 nM. Moreover, the Dmax (A375 (BRAF V600E, Class 1), observed Dmax, % protein degraded relative to DMSO control) was greater than 70%.

`CCCS(=O)(=O)Nc1cccc(-c2nc(C(C)(C)C)sc2-c2ccnc(Nc3cccc(C4CCN(C(=O)CN5CCc6cc(C7CCC(=O)NC7=O)ccc6C5)CC4)c3)n2)c1F` (racemic) [Compound 104, Rac-N-(3-{2-tert-butyl-5-[2-({3-[1-(2-{6-[(3R)-2,6-dioxopiperidin-3-yl]-1,2,3,4-tetrahydroisoquinolin-2-yl}acetyl)piperidin-4-yl]phenyl}amino)pyrimidin-4-yl]-1,3-thiazol-4-yl}-2-fluorophenyl)propane-1-sulfonamide]: under setting [1], the 50% degradation concentration (DC50) fell in the range of 50 to 500 nM. The same molecule displayed a Dmax under setting [2] of 30 to 70%.

Turning to `CCCS(=O)(=O)Nc1cccc(-c2nc(C(C)(C)C)sc2-c2ccnc(NC3CC4(C3)CN(CC3CCN(C(=O)C5CCN(c6ccc(C7CCC(=O)NC7=O)cc6)CC5)CC3)C4)n2)c1F` (racemic) [Compound 140, Rac-N-[3-(2-tert-butyl-5-{2-[(2-{[1-(1-{4-[(3R)-2,6-dioxopiperidin-3-yl]phenyl}piperidine-4-carbonyl)piperidin-4-yl]methyl}-2-azaspiro[3.3]heptan-6-yl)amino]pyrimidin-4-yl}-1,3-thiazol-4-yl)-2-fluorophenyl]propane-1-sulfonamide], the DC50 under setting [1] was in the range of 10 to 50 nM. This molecule showed a Dmax under setting [2] greater than 70%.

Turning to `CCCS(=O)(=O)Nc1cccc(-c2nc(C3CCN(CC4CCN(C(=O)C5CCN(c6ccc(C7CCC(=O)NC7=O)cn6)CC5)CC4)CC3)sc2-c2ccnc(N)n2)c1F` (racemic) [Compound 213, Rac-N-{3-[5-(2-aminopyrimidin-4-yl)-2-(1-{[1-(1-{5-[(3R)-2,6-dioxopiperidin-3-yl]pyridin-2-yl}piperidine-4-carbonyl)piperidin-4-yl]methyl}piperidin-4-yl)-1,3-thiazol-4-yl]-2-fluorophenyl}propane-1-sulfonamide], the DC50 under setting [1] is less than 10 nM. Under setting [2], this molecule came in with a Dmax greater than 70%.
